The record followed here is paper PMC5218480 (PLoS ONE, 2017).

The subject of this test is MV-4-11 cells. The test is described as follows: Gene expression microarray analysis (Affymetrix PrimeView) and GSEA. Type of test: cell-based, human. More on the design: RFU PODN (11730768_x_at) / Fold change /veh PODN (11730768_x_at) / RFU LINC00158 (11744669_a_at) / Fold change /veh LINC00158 (11744669_a_at) / RFU DUSP10 (11751237_a_at) / Fold change /veh DUSP10 (11751237_a_at) / RFU ID3 (11757404_x_at) / Fold change /veh ID3 (11757404_x_at) / RFU PLEKHG5 (11737974_s_at) / Fold change /veh PLEKHG5 (11737974_s_at) / RFU LRRC4B (11730491_at) / Fold change /veh LRRC4B (11730491_at) / RFU GIMAP4 (11747438_a_at) / Fold change /veh GIMAP4 (11747438_a_at) / RFU KRT8 (11758183_x_at) / Fold change /veh KRT8 (11758183_x_at) / RFU CNN1 (11734310_a_at) / Fold change /veh CNN1 (11734310_a_at) / RFU VPS37D (11726825_at) / Fold change /veh VPS37D (11726825_at) / RFU C10orf10 (11716522_x_at) / Fold change /veh C10orf10 (11716522_x_at) / RFU KIR2DL2 /// KIR2DL4 /// KIR2DL5A /// KIR2DL5B /// KIR2DS1 /// KIR2DS2 /// KIR2DS3 /// KIR2DS4 /// KIR3DL3 /// KIR3DL3 /// KIR3DS1 (11738374_at) / Fold change /veh KIR2DL2 /// KIR2DL4 /// KIR2DL5A /// KIR2DL5B /// KIR2DS1 /// KIR2DS2 /// KIR2DS3 /// KIR2DS4 /// KIR3DL3 /// KIR3DL3 /// KIR3DS1 (11738374_at) / RFU C1QL1 (11718748_at) / Fold change /veh C1QL1 (11718748_at) / RFU TMPRSS4 (11747572_a_at) / Fold change /veh TMPRSS4 (11747572_a_at) / RFU HAMP (11756126_x_at) / Fold change /veh HAMP (11756126_x_at) / RFU RNFT2 (11725882_a_at) / Fold change /veh RNFT2 (11725882_a_at) / RFU NR4A2 (11747474_a_at) / Fold change /veh NR4A2 (11747474_a_at) / RFU ABCC12 (11746883_a_at) / Fold change /veh ABCC12 (11746883_a_at) / RFU TMEM136 (11760407_x_at) / Fold change /veh TMEM136 (11760407_x_at) / RFU CLDN22 /// WWC2 (11732394_at) / Fold change /veh CLDN22 /// WWC2 (11732394_at) / RFU HLA-DPB1 (11760878_x_at) / Fold change /veh HLA-DPB1 (11760878_x_at) / RFU SPINT1 (11716480_a_at) / Fold change /veh SPINT1 (11716480_a_at) / RFU GAP43 (11754022_s_at) / Fold change /veh GAP43 (11754022_s_at) / RFU A4GNT (11735810_at) / Fold change /veh A4GNT (11735810_at) / RFU PRB3 (11715151_x_at) / Fold change /veh PRB3 (11715151_x_at) / RFU TUBB4B (11761932_at) / Fold change /veh TUBB4B (11761932_at) / RFU CAPN14 (11732068_a_at) / Fold change /veh CAPN14 (11732068_a_at) / RFU TMCC2 (11721928_a_at) / Fold change /veh TMCC2 (11721928_a_at) / RFU IRGQ (11745062_a_at) / Fold change /veh IRGQ (11745062_a_at) / RFU FAM174B (11720279_a_at) / Fold change /veh FAM174B (11720279_a_at) / RFU TMPRSS4 (11748680_a_at) / Fold change /veh TMPRSS4 (11748680_a_at) / RFU FAM212B (11763350_a_at) / Fold change /veh FAM212B (11763350_a_at) / RFU PLEKHG5 (11743358_a_at) / Fold change /veh PLEKHG5 (11743358_a_at) / RFU ZSCAN30 (11745921_a_at) / Fold change /veh ZSCAN30 (11745921_a_at) / RFU CMKLR1 (11741424_a_at) / Fold change /veh CMKLR1 (11741424_a_at) / RFU LOC101060620 /// MAPK8IP1 (11723275_at) / Fold change /veh LOC101060620 /// MAPK8IP1 (11723275_at) / RFU SPTSSB (11747773_x_at) / Fold change /veh SPTSSB (11747773_x_at) / RFU PRSS12 (11739890_at) / Fold change /veh PRSS12 (11739890_at) / RFU BIN1 (11741810_x_at) / Fold change /veh BIN1 (11741810_x_at) / RFU WNT11 (11732464_a_at) / Fold change /veh WNT11 (11732464_a_at) / RFU C10orf10 (11716521_a_at) / Fold change /veh C10orf10 (11716521_a_at) / RFU C5orf56 (11738089_at) / Fold change /veh C5orf56 (11738089_at) / RFU CYB561 (11721691_x_at) / Fold change /veh CYB561 (11721691_x_at) / RFU ANKRD19P (11752326_a_at) / Fold change /veh ANKRD19P (11752326_a_at) / RFU OR2T12 /// OR2T33 /// OR2T8 (11738714_s_at) / Fold change /veh OR2T12 /// OR2T33 /// OR2T8 (11738714_s_at) / RFU VCAN (11748164_a_at) / Fold change /veh VCAN (11748164_a_at) / RFU JSRP1 (11732532_at) / Fold change /veh JSRP1 (11732532_at) / RFU KRTAP10-11 (11738290_x_at) / Fold change /veh KRTAP10-11 (11738290_x_at) / RFU MYO3A (11730013_a_at) / Fold change /veh MYO3A (11730013_a_at) / RFU EBF3 (11725865_a_at) / Fold change /veh EBF3 (11725865_a_at) / RFU CAMK2N1 (11719241_x_at) / Fold change /veh CAMK2N1 (11719241_x_at) / RFU C5orf56 (11738088_a_at) / Fold change /veh C5orf56 (11738088_a_at) / RFU OLFML3 (11715873_a_at) / Fold change /veh OLFML3 (11715873_a_at) / RFU LOC100653217 /// NTM (11731650_a_at) / Fold change /veh LOC100653217 /// NTM (11731650_a_at) / RFU MAPK11 (11762145_a_at) / Fold change /veh MAPK11 (11762145_a_at) / RFU FIZ1 (11724087_x_at) / Fold change /veh FIZ1 (11724087_x_at) / RFU OASL (11726364_x_at) / Fold change /veh OASL (11726364_x_at) / RFU SOX15 (11748057_x_at) / Fold change /veh SOX15 (11748057_x_at) / RFU CD79A (11719716_a_at) / Fold change /veh CD79A (11719716_a_at) / RFU HIST1H1D (11736915_at) / Fold change /veh HIST1H1D (11736915_at) / RFU CASKIN2 (11723855_a_at) / Fold change /veh CASKIN2 (11723855_a_at) / RFU LOC730098 (11760151_x_at) / Fold change /veh LOC730098 (11760151_x_at) / RFU OR4N2 (11742367_at) / Fold change /veh OR4N2 (11742367_at) / RFU PRRT2 (11749266_a_at) / Fold change /veh PRRT2 (11749266_a_at) / RFU SNX32 (11753110_a_at) / Fold change /veh SNX32 (11753110_a_at) / RFU CDHR5 (11726645_a_at) / Fold change /veh CDHR5 (11726645_a_at) / RFU RCAN1 (11760418_a_at) / Fold change /veh RCAN1 (11760418_a_at) / RFU FAM167A (11723789_a_at) / Fold change /veh FAM167A (11723789_a_at) / RFU FAM26E (11764081_at) / Fold change /veh FAM26E (11764081_at) / RFU ISYNA1 (11749810_s_at) / Fold change /veh ISYNA1 (11749810_s_at) / RFU ACY1 (11761880_at) / Fold change /veh ACY1 (11761880_at) / RFU 11764098_at / Fold change /veh 11764098_at / RFU SAMD14 (11745864_x_at) / Fold change /veh SAMD14 (11745864_x_at) / RFU NPB (11741838_a_at) / Fold change /veh NPB (11741838_a_at) / RFU TMPRSS6 (11731388_a_at) / Fold change /veh TMPRSS6 (11731388_a_at) / RFU KRTAP10-2 (11738614_at) / Fold change /veh KRTAP10-2 (11738614_at) / RFU ARHGAP8 /// PRR5-ARHGAP8 (11727945_x_at) / Fold change /veh ARHGAP8 /// PRR5-ARHGAP8 (11727945_x_at) / RFU KRTAP5-7 /// NADSYN1 (11734609_at) / Fold change /veh KRTAP5-7 /// NADSYN1 (11734609_at) / RFU RASL12 (11751679_a_at) / Fold change /veh RASL12 (11751679_a_at) / RFU CDKN2B (11736163_a_at) / Fold change /veh CDKN2B (11736163_a_at) / RFU PRF1 (11729649_at) / Fold change /veh PRF1 (11729649_at) / RFU, ZNF638 /// ZNF638-IT1 / Fold change vs veh, ZNF638 /// ZNF638-IT1 / RFU, PANK3 / Fold change vs veh, PANK3 / RFU, SH3YL1 / Fold change vs veh, SH3YL1 / RFU, ZEB2 / Fold change vs veh, ZEB2 / RFU, NRIP1 / Fold change vs veh, NRIP1 / RFU, PTTG1IP / Fold change vs veh, PTTG1IP / RFU, CAPN2 / Fold change vs veh, CAPN2 / RFU, MED14 / Fold change vs veh, MED14 / RFU, SNORA58 / Fold change vs veh, SNORA58 / RFU, C1orf63 / Fold change vs veh, C1orf63 / RFU, LRRFIP1 / Fold change vs veh, LRRFIP1 / RFU, NDUFAF7 / Fold change vs veh, NDUFAF7 / RFU, SLC12A2 / Fold change vs veh, SLC12A2 / RFU, IBTK / Fold change vs veh, IBTK / RFU, ESF1 / Fold change vs veh, ESF1 / Fold change vs veh, TMEM50B / RFU, TAOK1 / Fold change vs veh, TAOK1 / RFU, ACBD3 / Fold change vs veh, ACBD3 / RFU, TMA16 / Fold change vs veh, TMA16 / RFU, RWDD3 / Fold change vs veh, RWDD3 / RFU, BCAT1 / Fold change vs veh, BCAT1 / RFU, EDEM3 / Fold change vs veh, EDEM3 / RFU, TMEM33 / Fold change vs veh, TMEM33 / RFU, WDR75 / Fold change vs veh, WDR75 / RFU, AHCTF1 / Fold change vs veh, AHCTF1 / RFU, TFRC / Fold change vs veh, TFRC / RFU, ZDHHC17 / Fold change vs veh, ZDHHC17 / RFU, NOM1 / Fold change vs veh, NOM1 / RFU, ARL8B / Fold change vs veh, ARL8B / RFU, ZBTB11 / Fold change vs veh, ZBTB11 / RFU, TAMM41 / Fold change vs veh, TAMM41 / RFU, KIAA1704 /// LOC100996395 / Fold change vs veh, KIAA1704 /// LOC100996395 / RFU, ING1 / Fold change vs veh, ING1 / RFU, TRMT61B / Fold change vs veh, TRMT61B / RFU, FUBP3 / Fold change vs veh, FUBP3 / RFU, TP53 / Fold change vs veh, TP53 / RFU, TNKS2 / Fold change vs veh, TNKS2 / RFU, ZFP14 / Fold change vs veh, ZFP14 / RFU, ACTR2 / Fold change vs veh, ACTR2 / RFU, PPP3R1 / Fold change vs veh, PPP3R1 / RFU, PIK3R1 / Fold change vs veh, PIK3R1 / RFU, HNRNPA1 / Fold change vs veh, HNRNPA1 / RFU, RNF170 / Fold change vs veh, RNF170 / RFU, ZNF28 / Fold change vs veh, ZNF28 / RFU, RNGTT / Fold change vs veh, RNGTT / RFU, OGT / Fold change vs veh, OGT / RFU, BRD1 / Fold change vs veh, BRD1 / RFU, MARS / Fold change vs veh, MARS / RFU, ZNF655 / Fold change vs veh, ZNF655 / RFU, FAHD1 / Fold change vs veh, FAHD1 / RFU, BDP1 / Fold change vs veh, BDP1 / RFU, LRRCC1 / Fold change vs veh, LRRCC1 / RFU, ARID1A / Fold change vs veh, ARID1A / RFU, ZNF146 / Fold change vs veh, ZNF146 / RFU, ZNF330 / Fold change vs veh, ZNF330 / RFU, GPN3 / Fold change vs veh, GPN3 / RFU, C9orf123 / Fold change vs veh, C9orf123 / RFU, N4BP2L2 / Fold change vs veh, N4BP2L2 / RFU, ARFIP1 / Fold change vs veh, ARFIP1 / RFU, FAM179B / Fold change vs veh, FAM179B / RFU, BCL10 / Fold change vs veh, BCL10 / RFU, UHRF1BP1L / Fold change vs veh, UHRF1BP1L / RFU, BET1 / Fold change vs veh, BET1 / RFU, CNOT2 / Fold change vs veh, CNOT2 / RFU, ZNF268 / Fold change vs veh, ZNF268 / Fold change vs veh, ZNF507 / RFU, DGCR2 / Fold change vs veh, DGCR2 / RFU, WDSUB1 / Fold change vs veh, WDSUB1 / Fold change vs veh, HSP90B1 /// MIR3652 / RFU, ADSS / Fold change vs veh, ADSS / RFU, GK / Fold change vs veh, GK / RFU, ZNF148 / Fold change vs veh, ZNF148 / RFU, TAF9 / Fold change vs veh, TAF9 / RFU, SLC1A5 / Fold change vs veh, SLC1A5 / RFU, SLMO2 / Fold change vs veh, SLMO2 / RFU, ABCC4 / Fold change vs veh, ABCC4 / RFU, LOC101060439 /// RAP1B / Fold change vs veh, LOC101060439 /// RAP1B / RFU, RFX7 / Fold change vs veh, RFX7 / RFU, GTPBP10 / Fold change vs veh, GTPBP10 / RFU, CNEP1R1 / Fold change vs veh, CNEP1R1 / RFU, BIVM-ERCC5 /// ERCC5 / Fold change vs veh, BIVM-ERCC5 /// ERCC5 / RFU, ILF3 / Fold change vs veh, ILF3 / RFU 11762660_at / Fold change /veh 11762660_at / RFU VCAN (11757783_s_at) / Fold change /veh VCAN (11757783_s_at) / RFU DDX43 (11728927_at) / Fold change /veh DDX43 (11728927_at) / RFU KRT8 (11758188_x_at) / Fold change /veh KRT8 (11758188_x_at) / RFU NKD1 (11759106_at) / Fold change /veh NKD1 (11759106_at) / RFU SRD5A1 (11742802_a_at) / Fold change /veh SRD5A1 (11742802_a_at) / RFU TPSAB1 /// TPSB2 (11721975_s_at) / Fold change /veh TPSAB1 /// TPSB2 (11721975_s_at) / RFU GSTM3 (11746129_a_at) / Fold change /veh GSTM3 (11746129_a_at) / RFU IL23R (11737362_x_at) / Fold change /veh IL23R (11737362_x_at) / RFU TMEM51 (11727254_a_at) / Fold change /veh TMEM51 (11727254_a_at) / RFU PIWIL2 (11732686_x_at) / Fold change /veh PIWIL2 (11732686_x_at) / RFU ORM1 (11744905_x_at) / Fold change /veh ORM1 (11744905_x_at) / RFU CCDC152 (11743942_at) / Fold change /veh CCDC152 (11743942_at) / RFU ECM1 (11717891_a_at) / Fold change /veh ECM1 (11717891_a_at) / RFU IL23R (11748794_a_at) / Fold change /veh IL23R (11748794_a_at) / RFU TNFAIP8L3 (11732012_x_at) / Fold change /veh TNFAIP8L3 (11732012_x_at) / RFU MBOAT4 (11741988_at) / Fold change /veh MBOAT4 (11741988_at) / RFU 11764193_at / Fold change /veh 11764193_at / RFU TMEM53 (11763286_at) / Fold change /veh TMEM53 (11763286_at) / RFU MAGEB2 (11727129_at) / Fold change /veh MAGEB2 (11727129_at) / RFU TMEM200A (11744735_a_at) / Fold change /veh TMEM200A (11744735_a_at) / RFU CCDC152 (11751479_a_at) / Fold change /veh CCDC152 (11751479_a_at) / RFU FAM211A (11726209_a_at) / Fold change /veh FAM211A (11726209_a_at) / RFU RGS16 (11746705_a_at) / Fold change /veh RGS16 (11746705_a_at) / RFU VCAN (11755009_s_at) / Fold change /veh VCAN (11755009_s_at) / RFU RHOB (11743442_s_at) / Fold change /veh RHOB (11743442_s_at) / RFU RGS16 (11720943_a_at) / Fold change /veh RGS16 (11720943_a_at) / RFU RGS16 (11720944_at) / Fold change /veh RGS16 (11720944_at) / RFU, VPS4B / Fold change vs veh, VPS4B / RFU, CREB1 / Fold change vs veh, CREB1 / RFU, DNAJC13 / Fold change vs veh, DNAJC13 / RFU, GNAQ / Fold change vs veh, GNAQ / RFU, CDK5R1 / Fold change vs veh, CDK5R1 / RFU, ZRANB3 / Fold change vs veh, ZRANB3 / RFU, CUL4A / Fold change vs veh, CUL4A / RFU, CCNY / Fold change vs veh, CCNY / RFU, UFL1 / Fold change vs veh, UFL1 / RFU, COG3 / Fold change vs veh, COG3 / RFU, DIAPH2 / Fold change vs veh, DIAPH2 / RFU, SKA2 / Fold change vs veh, SKA2 / RFU, AFF3 / Fold change vs veh, AFF3 / RFU, LMF1 / Fold change vs veh, LMF1 / RFU, IPO11 / Fold change vs veh, IPO11 / RFU, DFFB / Fold change vs veh, DFFB / RFU, FOXP1 / Fold change vs veh, FOXP1 / RFU, CARD8 / Fold change vs veh, CARD8 / RFU, STRN3 / Fold change vs veh, STRN3 / RFU, ADK / Fold change vs veh, ADK / RFU, RASSF2 / Fold change vs veh, RASSF2 / RFU, WIPF1 / Fold change vs veh, WIPF1 / RFU, LARP1B / Fold change vs veh, LARP1B / RFU, RASA1 / Fold change vs veh, RASA1 / RFU, RB1 / Fold change vs veh, RB1 / RFU, PPFIA1 / Fold change vs veh, PPFIA1 / RFU, MAT2A / Fold change vs veh, MAT2A / RFU, CCT5 / Fold change vs veh, CCT5 / RFU, WDR92 / Fold change vs veh, WDR92 / RFU, CUX1 / Fold change vs veh, CUX1 / RFU, TTC7A / Fold change vs veh, TTC7A / RFU, TMEM135 / Fold change vs veh, TMEM135 / RFU, DEPTOR / Fold change vs veh, DEPTOR / RFU, CPM / Fold change vs veh, CPM / RFU, DNAJB6 / Fold change vs veh, DNAJB6 / RFU, CACNA2D3 / Fold change vs veh, CACNA2D3 / RFU, DTX4 / Fold change vs veh, DTX4 / RFU, TFCP2 / Fold change vs veh, TFCP2 / RFU, GMCL1 /// GMCL1P1 / Fold change vs veh, GMCL1 /// GMCL1P1 / RFU, AEBP2 / Fold change vs veh, AEBP2 / RFU, SNHG1 /// SNORD22 /// SNORD25 /// SNORD26 /// SNORD27 /// SNORD28 /// SNORD29 /// SNORD31 / Fold change vs veh, SNHG1 /// SNORD22 /// SNORD25 /// SNORD26 /// SNORD27 /// SNORD28 /// SNORD29 /// SNORD31 / Fold change (Aza/veh), C12orf56 (ProbeSet 11735607_a_at) / Fold change (ACY-1035/veh), C12orf56 (ProbeSet 11735607_a_at) / Fold change (Aza/veh), FGFR1OP (ProbeSet 11751329_s_at) / Fold change (ACY-1035/veh), FGFR1OP (ProbeSet 11751329_s_at) / Fold change (Aza/veh), VPS36 (ProbeSet 11739960_a_at) / Fold change (ACY-1035/veh), VPS36 (ProbeSet 11739960_a_at) / RFU SYPL1 (11715823_x_at) / Fold change /veh SYPL1 (11715823_x_at) / RFU IGFBP7 (11715501_s_at) / Fold change /veh IGFBP7 (11715501_s_at) / RFU REEP3 (11722064_at) / Fold change /veh REEP3 (11722064_at) / RFU IGLL1 (11728026_x_at) / Fold change /veh IGLL1 (11728026_x_at): dose or concentration left out as unconfirmed. The conditions noted are these: MV-4-11 cells, 48 hours.

Take `Nc1ncn([C@@H]2O[C@H](CO)[C@@H](O)[C@H]2O)c(=O)n1` [azacitidine]: the “Fold change /veh RGS16 (11720943_a_at)” value is listed as 1.45.
